Assays:
Taq polymerase = molecular target: T1, Taq polymerase (Thermus aquaticus, UniProt P19821); test: Inhibition of PCR by heparin and sucrose, SYBR Green quantitation of amplicon; format: biochemical; settings: for concentration that inhibits PCR efficiency: final concentration in PCR reaction, 35 cycles
T1 construct: purchased Applied Biosystems Inc
Experimental: (§1) We discovered that heparin and sucrose inhibit reverse transcription (RT) and polymerase chain reaction (PCR). To determine the level of heparin or sucrose that inhibits these reactions, RT and PCR reactions were performed at varying heparin and sucrose concentrations. Each reaction mixture contained 25 μL 2× SYBR Green PCR Master Mix (Applied Biosystems Inc), 0.25 μL MultiScribe Reverse Transcriptase at 50U/μl (ABI), 0.4 μL RNase Inhibitor at 20U/μl (ABI), 25 nM forward primer, 25 nM reverse primer, 10 μl RNA template, and enough water to bring the final reaction volume to 50 μl. For the RT reactions, E coli RNase P RNA was used as the RNA template, and 1.25 μl of each primer from a stock solution of 1 μM was used, giving a final primer concentration of 25 nM. The RNase P primers were RNASEP-F19 (5′-[…]-3′, SEQ ID NO: 1) and RNASEP-R278 (5′-[…]-3′, SEQ ID NO: 2). All primers were purchased from Integrated DNA Technologies, Inc. The 2× SYBR Green Master Mix contains Taq polymerase, nucleotides, buffer, and magnesium. These reaction mixtures were assembled in a Micro Amp Optical 96 well reaction plate (ABI).
PCR reactions were also performed in the presence of varying amounts of heparin and sucrose. The plasmid pJA2′, which contains the DNA copy of the E coli RNase P RNA, was used as the template in these PCR reactions to generate both experimental and standard curves. Thirty-five cycles of PCR were performed in which the reaction mixture was incubated at 95° C. for 15 seconds for denaturation and 60° C. for one minute for annealing and extension. The reaction mixtures in the 96 well plate were loaded in the Gene Amp 5700 Sequence Detection System (ABI). This machine quantitates the amount of PCR product made after each cycle. A standard curve is generated with each reaction and used to calculate the quantity of the PCR product or amplicon for each experimental reaction. For the “Raw Activity” column in Table 2 the units are ng of DNA.

[1] = molecular target: T2, MultiScribe Reverse Transcriptase (Moloney murine leukemia virus, UniProt P03355); test: Inhibition of reverse transcription (RT) by heparin and sucrose, 32P-labeled primer extension; format: biochemical
T2 construct: MultiScribe Reverse Transcriptase; purchased ABI (Applied Biosystems Inc)
Experimental: as §1
To examine the reverse transcription efficiency in the presence of sucrose and heparin, the reverse primer specific for RNase P RNA was ^32P labeled, and used as the only source of reverse primer. The radiolabeled primer was extended using reverse transcription during an incubation at 48° C. for 30 minutes. The resultant DNA was isolated and separated on a 6% denaturing gel. After soaking and drying the gel, the ^32P labeled reverse transcription product was quantitated using the Cyclone Storage Phosphor System (Packard) and Optiquant Image Analysis Software (Packard). This software reports the intensity of a selected band on the gel in units called Digital Light Units (DLU). The number of DLUs is listed in the “Raw Activity” column in Table 1. The amounts of sucrose and heparin in the samples as well as the final concentration of sucrose (percent weight per volume, % w/v) and heparin in the RT reaction are also listed. The highest amount represents 30% sucrose (average of the amount in a typical sucrose gradient) and 1 mg/mL heparin (amount of heparin in a typical sucrose gradient fraction). The amount of reverse transcription activity (“% RT” column) is expressed as a percent of the activity in the presence of differing amounts of sucrose or heparin relative to the activity in the absence of these substances.

[2] = heparin 0.002 ng/μL final in PCR reaction (0.06 in sample)
[3] = heparin 0.012 ng/μL final in PCR reaction (0.32 in sample)
[4] = heparin 0.064 ng/μL final in PCR reaction (1.6 in sample)
[5] = heparin 0.32 ng/μL final in PCR reaction (8 in sample)
[6] = heparin 1.6 ng/μL final in PCR reaction (40 in sample)
[7] = heparin 8 ng/μL final in PCR reaction (200 in sample)
[8] = heparin 40 ng/μL final in PCR reaction (1000 in sample)
[9] = heparin 0.002 ng/μL final in RT reaction (0.06 in sample)
[10] = heparin 0.012 ng/μL final in RT reaction (0.32 in sample)
[11] = heparin 0.064 ng/μL final in RT reaction (1.6 in sample)
[12] = heparin 0.32 ng/μL final in RT reaction (8 in sample)
[13] = heparin 1.6 ng/μL final in RT reaction (40 in sample)
[14] = heparin 8 ng/μL final in RT reaction (200 in sample)
[15] = heparin 40 ng/μL final in RT reaction (1000 in sample)
[16] = sucrose 0.001 % w/v final in PCR reaction (0.04 % in sample)
[17] = sucrose 0.004 % w/v final in PCR reaction (0.12 % in sample)
[18] = sucrose 0.014 % w/v final in PCR reaction (0.37 % in sample)
[19] = sucrose 0.044 % w/v final in PCR reaction (1.11 % in sample)
[20] = sucrose 0.133 % w/v final in PCR reaction (3.33 % in sample)
[21] = sucrose 0.4 % w/v final in PCR reaction (10 % in sample)
[22] = sucrose 1.2 % w/v final in PCR reaction (30 % in sample)
[23] = sucrose 0.001 % W/V final in RT reaction (0.04 % in sample)
[24] = sucrose 0.004 % W/V final in RT reaction (0.12 % in sample)
[25] = sucrose 0.014 % W/V final in RT reaction (0.37 % in sample)
[26] = sucrose 0.044 % W/V final in RT reaction (1.11 % in sample)
[27] = sucrose 0.133 % W/V final in RT reaction (3.33 % in sample)
[28] = sucrose 0.4 % W/V final in RT reaction (10 % in sample)
[29] = sucrose 1.2 % W/V final in RT reaction (30 % in sample)

T1 sequence (P19821 whole entry): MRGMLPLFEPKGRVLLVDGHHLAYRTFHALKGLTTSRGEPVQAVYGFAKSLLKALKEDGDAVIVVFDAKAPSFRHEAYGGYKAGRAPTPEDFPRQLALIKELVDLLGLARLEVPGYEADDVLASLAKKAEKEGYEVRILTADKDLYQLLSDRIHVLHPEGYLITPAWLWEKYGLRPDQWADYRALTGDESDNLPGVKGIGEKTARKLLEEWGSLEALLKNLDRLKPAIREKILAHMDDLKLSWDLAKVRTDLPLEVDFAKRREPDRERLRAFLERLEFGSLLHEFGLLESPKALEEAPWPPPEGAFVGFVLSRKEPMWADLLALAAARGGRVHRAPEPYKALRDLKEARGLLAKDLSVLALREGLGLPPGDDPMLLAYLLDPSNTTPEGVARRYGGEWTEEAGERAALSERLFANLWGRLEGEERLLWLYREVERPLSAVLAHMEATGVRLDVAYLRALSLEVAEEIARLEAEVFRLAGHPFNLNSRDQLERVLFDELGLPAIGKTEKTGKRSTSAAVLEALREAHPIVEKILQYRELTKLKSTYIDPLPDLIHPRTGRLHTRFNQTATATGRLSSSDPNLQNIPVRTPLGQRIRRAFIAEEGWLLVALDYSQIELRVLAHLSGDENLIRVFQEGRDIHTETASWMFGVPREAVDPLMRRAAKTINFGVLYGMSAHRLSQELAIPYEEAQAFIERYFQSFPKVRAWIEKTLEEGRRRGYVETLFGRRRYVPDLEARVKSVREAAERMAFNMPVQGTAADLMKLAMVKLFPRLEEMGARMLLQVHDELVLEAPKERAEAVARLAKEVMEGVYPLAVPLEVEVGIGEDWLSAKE

heparin
concentration that inhibits PCR efficiency (Taq polymerase): 0.012 ng/µL
% PCR (Taq polymerase; [2]): 107.69%
Raw Activity (quantity of PCR product) (Taq polymerase; [2]): 0.002 11.2 ng of DNA
% PCR (Taq polymerase; [3]): 75.962%
Raw Activity (quantity of PCR product) (Taq polymerase; [3]): 7.9 ng of DNA
% PCR (Taq polymerase; [4]): 29.808%
Raw Activity (quantity of PCR product) (Taq polymerase; [4]): 3.1 ng of DNA
% PCR (Taq polymerase; [5]): 0%
Raw Activity (quantity of PCR product) (Taq polymerase; [5]): 0 ng of DNA
% PCR (Taq polymerase; [6]): 0%
Raw Activity (quantity of PCR product) (Taq polymerase; [6]): 0 ng of DNA
% PCR (Taq polymerase; [7]): 0%
Raw Activity (quantity of PCR product) (Taq polymerase; [7]): 0 ng of DNA
% PCR (Taq polymerase; [8]): 0%
Raw Activity (quantity of PCR product) (Taq polymerase; [8]): 0 ng of DNA
concentration that significantly inhibits reverse transcription efficiency ([1]; final concentration in RT reaction): ≥ 0.32 ng/µL
% RT (reverse transcription activity relative to activity in absence of substance) [1, 9]: 108.01%
Raw Activity (RT product band intensity) [1, 9]: 10.79 DLU
% RT (reverse transcription activity relative to activity in absence of substance) [1, 10]: 101.8%
Raw Activity (RT product band intensity) [1, 10]: 10.17 DLU
% RT (reverse transcription activity relative to activity in absence of substance) [1, 11]: 93.293%
Raw Activity (RT product band intensity) [1, 11]: 9.32 DLU
% RT (reverse transcription activity relative to activity in absence of substance) [1, 12]: 72.573%
Raw Activity (RT product band intensity) [1, 12]: 7.25 DLU
% RT (reverse transcription activity relative to activity in absence of substance) [1, 13]: 3.6036%
Raw Activity (RT product band intensity) [1, 13]: 0.36 DLU
% RT (reverse transcription activity relative to activity in absence of substance) [1, 14]: 0.6006%
Raw Activity (RT product band intensity) [1, 14]: 0.06 DLU
% RT (reverse transcription activity relative to activity in absence of substance) [1, 15]: 0.8008%
Raw Activity (RT product band intensity) [1, 15]: 0.08 DLU

OC[C@H]1O[C@@](CO)(O[C@H]2O[C@H](CO)[C@@H](O)[C@H](O)[C@H]2O)[C@@H](O)[C@@H]1O [Sucrose, sucrose]
concentration that inhibits PCR efficiency (Taq polymerase): 0.004 % w/v
% PCR (Taq polymerase; [16]): 102%
Raw Activity (quantity of PCR product) (Taq polymerase; [16]): 10.2 ng of DNA
% PCR (Taq polymerase; [17]): 66.6%
Raw Activity (quantity of PCR product) (Taq polymerase; [17]): 6.66 ng of DNA
% PCR (Taq polymerase; [18]): 67%
Raw Activity (quantity of PCR product) (Taq polymerase; [18]): 6.7 ng of DNA
% PCR (Taq polymerase; [19]): 61%
Raw Activity (quantity of PCR product) (Taq polymerase; [19]): 6.1 ng of DNA
% PCR (Taq polymerase; [20]): 65.7%
Raw Activity (quantity of PCR product) (Taq polymerase; [20]): 6.57 ng of DNA
% PCR (Taq polymerase; [21]): 66.7%
Raw Activity (quantity of PCR product) (Taq polymerase; [21]): 6.67 ng of DNA
% PCR (Taq polymerase; [22]): 72.6%
Raw Activity (quantity of PCR product) (Taq polymerase; [22]): 7.26 ng of DNA
% RT (reverse transcription activity relative to activity in absence of substance) [1, 23]: 133.445%
Raw Activity (RT product band intensity) [1, 23]: 7.94 DLU
% RT (reverse transcription activity relative to activity in absence of substance) [1, 24]: 158.487%
Raw Activity (RT product band intensity) [1, 24]: 9.43 DLU
% RT (reverse transcription activity relative to activity in absence of substance) [1, 25]: 171.933%
Raw Activity (RT product band intensity) [1, 25]: 10.23 DLU
% RT (reverse transcription activity relative to activity in absence of substance) [1, 26]: 159.832%
Raw Activity (RT product band intensity) [1, 26]: 9.51 DLU
% RT (reverse transcription activity relative to activity in absence of substance) [1, 27]: 155.798%
Raw Activity (RT product band intensity) [1, 27]: 9.27 DLU
% RT (reverse transcription activity relative to activity in absence of substance) [1, 28]: 119.328%
Raw Activity (RT product band intensity) [1, 28]: 7.1 DLU
% RT (reverse transcription activity relative to activity in absence of substance) [1, 29]: 96.1345%
Raw Activity (RT product band intensity) [1, 29]: 5.72 DLU
effect on the efficiency of reverse transcription ([1]; up to 1.2 % W/V sucrose final, 48° C. for 30 minutes): does not inhibit

Reference: patent publication US20030170702A1, “Methods for polysome distribution analysis of mRNA's” (priority 2002, published 2003)
